Data taken from a melting point compilation (Tetko et al.; mined from patent text by program, amines drawn as free bases though some values may be those of a salt).

Compared with `COc1ccccc1C(=O)N1CCN(CC2(C)Cc3c(C)c(N)c(C)c(C)c3O2)CC1` (stereo not given), `COc1ccccc1N1CCN(CCNc2ccccc2C(N)=O)CC1` is higher in melting point: 128 to 131 °C for the first, 134 to 136 °C for the second.

First: CCC(=O)N(C(=O)CC)c1nc2c(c(-c3ccccc3)cn2C)c(=O)n1C
Second: CCC(=O)CN1C(=O)C(NC(=O)Nc2cccc(C)c2)N=C(C)c2cccc(C)c21 (stereo not given)
The melting point of the first is higher: 215 to 217 °C for the first, 125 to 128 °C for the second.

First: COC(=O)C1=C(NCc2ccccc2)C(=O)O[C@@H]1C
Second: Cc1sc(N)c(C(=O)c2ccccc2)c1C
The melting point of the first is lower: 68 to 70 °C for the first, 140 to 141 °C for the second.

Compared with `CON(C(=O)c1cn(C)nc1C(F)(F)F)C(CF)Cc1c(Cl)cc(Cl)cc1Cl` (stereo not given), `Cc1cc(Oc2c(F)cc(C(F)(F)F)cc2Cl)n[nH]1` is lower in melting point: 131 to 133 °C for the first, 116 to 117 °C for the second.

`O=C(NCC12CC3CC(CC(C3)C1)C2)c1c(Cl)ccc2nc(N3CCC(n4cn[nH]c4=O)CC3)ccc12` and `CCCn1c(=O)c2[nH]c(C3CCCC3)nc2n(CCc2ccc(NC(=O)C3CCCC3)cc2)c1=O` cannot be ordered by melting point: 294 to 295 °C for the first, over 270 °C for the second.

First: CC12C=CC(=O)C=C1CCC1C3=CC(O)C(O)(C(=O)CO)C3(C)CC(O)C12 (stereo not given)
Second: CC1(C)CCCN(C(=O)[C@H]2C[C@@H](S(=O)(=O)c3ccccc3)[C@@H](c3ccccc3F)N2C(=O)CNC(=O)Nc2cccc(C(=O)O)c2)C1 (racemic)
The melting point of the first is lower: 240 to 242 °C for the first, 258 °C for the second.

First: N#Cc1cccc(C2=Nc3ccc(C#CC4(O)CCCCC4)cc3NC(=O)C2)c1
Second: CN1C(=O)C(NC(=O)CCC2CCCCC2)N=C(c2ccccc2)c2cnccc21 (stereo not given)
The melting point of the first is higher: 196 °C for the first, 170 to 173 °C for the second.

First: CCc1cc2c(cc1CCSCC(N)=O)OCO2
Second: COC(=O)CCCC(=O)c1ccc2c(c1)CCO2
The melting point of the first is higher: 98 to 99 °C for the first, 80 to 81 °C for the second.

First: CCOC(=O)C(=CN)C(=O)c1cc(F)c(Cl)c([N+](=O)[O-])c1Cl
Second: Cc1ccc(C(=O)Nc2ccccc2C#N)c([N+](=O)[O-])c1
The melting point of the first is lower: 113 to 114 °C for the first, 230 to 232 °C for the second.

First: NS(=O)(=O)c1cc2c(s1)S(=O)(=O)C(CCO)CN2 (stereo not given)
Second: COC(=O)NC1=NCC(c2ccccc2Br)CN1 (stereo not given)
The melting point of the first is lower: 158 to 160 °C for the first, 213 to 215 °C for the second.

Compared with `COc1ccc(C2(O)CCS(=O)(=O)CC2)cc1OC1CCCC1`, `COc1ccc(F)cc1OCCCl` is lower in melting point: 147 to 149 °C for the first, 35 to 38 °C for the second.

`O=c1[nH]c2cc(Cl)c(S(=O)CCN3CCC(Cc4ccccc4)CC3)cc2o1` (stereo not given) and `CCCOc1ccc(S(=O)(=O)N2CC[C@@H](N(C)C)C2)cc1-c1nc2cc3ncn(Cc4ccccc4)c3cc2c(=O)[nH]1` cannot be ordered by melting point: 190 to 192 °C for the first, 190 °C for the second.

Compared with `Nc1ncc2c(n1)CCC(CNC(=O)[C@@H]1CCCN1C(=O)[C@@H](Cc1ccccc1)NS(=O)(=O)Cc1ccccc1)C2` (stereo not given in full), `CCCCCCCNC(=O)Nc1ccc(F)cc1C(=O)NC1CCN(C(c2ccccc2)c2ccccc2)CC1` is higher in melting point: 118 to 121 °C for the first, 208 to 210 °C for the second.

Compared with `O=C=NC1(c2ccccc2)CCC2(CC1)OCCO2`, `Cc1nc(N2CCc3ccccc3CC2)c(C#N)c(=O)n1C[C@H]1COC(C)(C)O1` is higher in melting point: 38 to 41 °C for the first, 166 to 168 °C for the second.

Compared with `Cc1cc(C)c2cccc(OCc3c(Cl)ccc(S(=O)(=O)N4CCC[C@H]4C(=O)N4CCN(C(=O)c5cccc(C=NN)c5)CC4)c3Cl)c2n1`, `COc1cc(C(=O)NS(=O)(=O)c2ccccc2)ccc1Cc1nn(C)c2ccc(NC(=O)OC3CCCC3)cc12` is lower in melting point: 158 °C for the first, 145 °C for the second.

`O=C1NCc2c1cc1ccc3c(c1c2-c1ccncc1)OCO3` and `COc1ccc(-c2[nH]nc3c2C(=O)c2c(NC(=O)CCNc4ccncc4)cccc2-3)cc1` cannot be ordered by melting point: 316 to 319 °C for the first, over 300 °C for the second.

Compared with `O=C(OI(OC(=O)C(F)(F)F)C(F)(F)C(F)(F)C(F)(F)C(F)(F)C(F)(F)C(F)(F)C(F)(F)C(F)(F)F)C(F)(F)F`, `O=C1N(Cc2ccc(OC(F)(F)F)cc2)C(=NCC(F)(F)F)SCN1c1ccccc1` is lower in melting point: 70 to 74 °C for the first, 54 to 56 °C for the second.

Compared with `CCCC(Cl)(Cl)C(NC(=O)c1ccc(Cl)cc1)NC(=C[N+](=O)[O-])Nc1cccnc1` (stereo not given), `CC(C)(Cc1ccccc1)C(NC(=O)c1cc(Cl)cc(Cl)c1)Nc1c(Nc2cccnc2)c(=O)c1=O` (stereo not given) is higher in melting point: 185 to 186 °C for the first, 197 to 198 °C for the second.

Compared with `O=[N+]([O-])c1ccc(Oc2cccc3c(Oc4ccc([N+](=O)[O-])c([N+](=O)[O-])c4)cccc23)cc1[N+](=O)[O-]`, `CC(CC#N)Nc1cc(Oc2ccc(S(=O)(=O)C(C)C)cc2Cl)ccc1[N+](=O)[O-]` (stereo not given) is lower in melting point: 224 to 228 °C for the first, 132 °C for the second.

`COC(=O)/C(=C/C=C/c1cc2ccccc2o1)OC` and `COC(=O)/C(=C/C=C/c1cn(C(C)=O)c2ccccc12)OC` cannot be ordered by melting point: 108 °C for the first, 107 to 108 °C for the second.

Compared with `CS(=O)(=O)NCCCC(c1cc(F)ccc1F)S(=O)(=O)c1ccc(Cl)cc1` (stereo not given), `NNC(=O)c1ccc2occ(-c3cc(F)ccc3F)c2c1` is higher in melting point: 128 °C for the first, 198 to 199 °C for the second.

First: COC(=O)CC(=O)C[C@H]1NC(=O)[C@@H]1N1C(=O)c2ccccc2C1=O
Second: COc1c2c(c(OC)c(OC)c1OC)CC(CCCCCCCCN1C(=O)c3ccccc3C1=O)C2
The melting point of the first is higher: 116 to 120 °C for the first, 64 to 65 °C for the second.

First: Cc1ccc(C(=O)Nc2ccc(-c3ccccc3)c(C(F)(F)F)c2)cc1Nc1nccc(-c2cccnc2)n1
Second: CCCOC(Nc1ccccc1)(OCCC)c1ccnc(C(=O)c2ccc(C)cc2)c1
The melting point of the first is higher: 172 to 174 °C for the first, 120 to 121 °C for the second.

First: CC(=O)OC1CSC(Oc2cc(-c3cncnc3)cnc2F)C(OC(C)=O)C1OC(C)=O (stereo not given)
Second: Ic1ccc2c(c1)ncn2-c1cccc(-c2cncnc2)c1
The melting point of the first is lower: 96 to 97 °C for the first, 197 to 199 °C for the second.

First: CS(=O)(=O)c1ccc(N2CC=C(N3CCCC3)CC2)cc1
Second: Cn1c([N+](=O)[O-])cnc1COc1ccc(S(C)(=O)=O)cc1
The melting point of the first is lower: 141 to 143 °C for the first, 155 °C for the second.

Compared with `O=C1CCC(c2c[nH]c3ncccc23)CC1`, `CC(C(O)c1ccc2c(c1)CCCS2)N1CCC(NC(=O)c2ccccc2)CC1` (stereo not given) is higher in melting point: 162 to 164 °C for the first, 200 to 201 °C for the second.

First: COc1ccc(F)cc1C(C)(C)CC(C)(O)Cc1cc2ccccc2[nH]1 (stereo not given)
Second: COc1cccc(-n2c(=O)[nH]c3c(C(N)=O)nc(-c4cccc(O)c4)nc32)c1F
The melting point of the first is lower: 118 to 120 °C for the first, over 260 °C for the second.

Compared with `O=C(c1ccccc1)C(c1cccc2ccccc12)P(=O)(O)O` (stereo not given), `Cc1ccccc1COC(=O)c1ccc(C(=O)N2Cc3ccccc3Cc3ccccc32)cc1` is lower in melting point: 184 to 187 °C for the first, 140 to 142 °C for the second.

First: N#CC1=C(c2c[nH]c3ccccc23)Nc2n[nH]cc2C1c1cccc2nonc12 (stereo not given)
Second: COc1ccc2cc3ncc(C#N)c(Nc4ccc(Cl)cc4Cl)c3cc2c1
The melting point of the first is higher: 238 °C for the first, 215 to 217 °C for the second.

Compared with `N#Cc1nn(-c2c(Cl)cc(C(F)(F)F)cc2Cl)c(-n2cccc2)c1S(=O)C(F)(F)F` (stereo not given), `COCCNC(=O)c1cc(F)cc(-c2cccc3c(F)c(Cc4cccc(C(F)(F)F)c4)sc23)c1` is lower in melting point: 165 to 167 °C for the first, 109 to 110 °C for the second.

First: COc1cc(N2CCOCC2)ccc1Nc1nc(Nc2cc(F)cc3c2OCCNC3=O)ncc1Cl
Second: CCOC(=O)N1CCC(c2[nH]nc3c2C(=O)c2c(NC(=O)NN4CCOCC4)cccc2-3)CC1
The melting point of the first is higher: over 230 °C for the first, 206 to 207 °C for the second.

First: COc1ccc(CNc2nc(N)n3nc(-c4ccco4)nc3n2)cc1
Second: CN(c1ccoc1)c1n[nH]c2ncnc(Nc3cccc(Cl)c3)c12
The melting point of the first is higher: 238 to 239 °C for the first, 207 to 209 °C for the second.

Compared with `Cc1ccc(N=Nc2ccc(-c3ccc(-c4ccc(N=Nc5ccc(C)cn5)cc4OC(C)C)o3)c(OC(C)C)c2)nc1`, `COc1ccc(Cc2sc3ccccc3c2-c2ccc(-c3ccc(OC(Cc4ccccc4)C(=O)O)cc3)cc2)cc1OC` (stereo not given) is lower in melting point: 185 to 194 °C for the first, 59 to 61 °C for the second.

First: COC(=O)COc1c(C)cc(SCc2sc(-c3ccc(C(F)(F)F)cc3)nc2C)cc1C
Second: CCC(=O)NC1=NN(c2nc3ccccc3s2)C(c2ccc(C)cc2)C1 (stereo not given)
The melting point of the first is lower: 104 to 105 °C for the first, 208 to 209 °C for the second.

First: c1ccc2c(c1)SSSSS2
Second: O=S1(=O)N=C(OCc2snc(Cl)c2Cl)c2ccccc21
The melting point of the first is lower: 56 to 58 °C for the first, 165 to 167 °C for the second.

Compared with `CN1C(=O)C(c2cc[nH]c2)(c2cccc(O)c2)N=C1N` (stereo not given), `Cc1ccc(OC2COc3ccc(O)cc3C2O)cn1` (stereo not given) is higher in melting point: 142 to 145 °C for the first, 240 to 241 °C for the second.

First: OCc1cnoc1-c1ccc(F)cc1F
Second: CCC(O)c1cc2ccccc2cc1CO (stereo not given)
The melting point of the first is lower: 60 to 61 °C for the first, 70 °C for the second.

First: Sc1nccn1-c1nccs1
Second: CC(CNC(=O)c1ccc(Cl)nc1)Cn1ccnc1 (stereo not given)
The melting point of the first is higher: 211 to 213 °C for the first, 102 to 104 °C for the second.

First: COP(=O)(OC)[C@H](C)NC(=O)[C@H](C)N
Second: COC(=O)c1ccc(C(=O)c2ccc(C(=O)OC)cc2)cc1
The melting point of the first is lower: 103 to 106 °C for the first, 228 to 230 °C for the second.

Compared with `Oc1cc(-c2cc3n(n2)CCCC3)c(F)cc1Cl`, `N#Cc1cc2c(c(C(=O)O)c1)NCCC2` is higher in melting point: 218 to 220 °C for the first, 238 °C for the second.

`CNC(=O)C1CC(=O)c2nc(C)n(C)c2C1` (stereo not given) and `CCCNC(=O)c1cnc2cc(C)ccn2c1=O` fall in the same range of melting point: 194 to 196 °C for the first, 194 to 196 °C for the second.

First: O=C(O)c1cc(I)cc2c(=O)c3ccccc3[nH]c12
Second: CNC[C@@H]1c2ccccc2Oc2ccc(Cl)cc2[C@H]1C(=O)O (relative stereo)
The melting point of the first is higher: over 400 °C for the first, 154 °C for the second.

Compared with `CCOC(=O)C=Cc1ccc(OC)c(-c2cc3c(cc2OCCCCCC(=O)OC(C)(C)C)C(C)(C)CCC3(C)C)c1`, `COc1cc(OC)c(C=CC(=O)c2ccc(S(N)(=O)=O)cc2)cc1C#Cc1ccccc1N` is higher in melting point: 130 to 132 °C for the first, 167 to 169 °C for the second.

First: Cc1ccc(CCc2ccccc2)c(OCC[C@@H]2C[C@@H](O)CN2C)c1
Second: CCCc1cc(Nc2ccn(-c3ccccc3)n2)cc(CCC)c1OC(C)=O
The melting point of the first is higher: 97 to 100 °C for the first, 71 to 74 °C for the second.

First: CCC1(c2c[nH]cn2)Cc2ccc(N)cc2C1 (stereo not given)
Second: O=[N+]([O-])c1ccccc1N1CCc2cc(Cl)ccc21
The melting point of the first is higher: 145 to 152 °C for the first, 85 to 89 °C for the second.

First: Cc1nnc2n1-c1sc(CCC(=O)O)cc1C(c1ccccc1Cl)=NC2C (stereo not given)
Second: O=c1c2cc(O)ccc2sc2c([N+](=O)[O-])ccc(Cl)c12
The melting point of the first is lower: 202 to 204 °C for the first, over 300 °C for the second.

First: CCc1ccc(NC(=S)SC)cc1
Second: CCC(C(=O)C(C)C(O)C(C)CCc1c(Cl)cc(C)c(O)c1C(=O)O)C1OC(CC)(C2CCC(O)(CC)C(C)O2)CC1C (stereo not given)
The melting point of the first is lower: 78 °C for the first, 183 to 185 °C for the second.

`N#Cc1c(Cl)csc1N` showed a melting point of 230 °C.
